In patent publication US7956074B2, “Aryl-isoxazolo-4-yl-oxadiazole derivatives” (Hoffman-La Roche Inc., priority 2005, dated 2011):

Target: T1, GABA A receptor α5β3γ2 (Homo sapiens, UniProt P18507+P31644)
T1 construct: expressed in transfected cells; host or cells: HEK293 cells, transiently transfected; membranes prepared
Test: [3H]flumazenil competition binding, human GABA A α5β3γ2
Conditions: competition for [3H]flumazenil (0.5 nM) binding, HEK293 cells expressing human (transiently transfected) α5β3γ2; means of two determinations; read-out: Ki[nM] hα5
Method: Membrane Preparation and Binding Assay
The affinity of compounds at GABA A receptor subtypes was measured by competition for [3H]flumazenil (85 Ci/mmol; Roche) binding to HEK293 cells expressing rat (stably transfected) or human (transiently transfected) receptors of composition
Cell pellets were suspended in Krebs-tris buffer (4.8 mM KCl, 1.2 mM CaCl2, 1.2 mM MgCl2, 120 mM NaCl, 15 mM Tris; pH 7.5; binding assay buffer), homogenized by polytron for ca. 20 sec on ice and centrifuged for 60 min at 4° C. (50000 g; Sorvall, rotor: SM24=20000 rpm). The cell pellets were resuspended in Krebs-tris buffer and homogenized by polytron for ca. 15 sec on ice. Protein was measured (Bradford method, Bio-Rad) and aliquots of 1 mL were prepared and stored at −80° C.
Assays were incubated to equilibrium for 1 hour at 4° C. and harvested onto GF/C uni-filters (Packard) by filtration using a Packard harvester and washing with ice-cold wash buffer (50 mM Tris; pH 7.5). After drying, filter-retained radioactivity was detected by liquid scintillation counting. Ki values were calculated using Excel-Fit (Microsoft) and are the means of two determinations.

| Molecule | Ki [nM] |
| --- | --- |
| Cc1onc(-c2ccccc2)c1-c1nnc(-c2ccccc2OCc2ccccc2)o1 [Example 46, 2-(2-Benzyloxy-phenyl)-5-(5-methyl-3-phenyl-isoxazol-4-yl)-[1,3,4]oxadiazole] | 255 |
| Cc1onc(-c2ccccc2)c1-c1nnc(-c2ccncc2)o1 [Example 40, 4-[5-(5-Methyl-3-phenyl-isoxazol-4-yl)-[1,3,4]oxadiazol-2-yl]-pyridine] | 179 |
| COc1ccc(-c2nnc(-c3c(-c4ccccc4)noc3C)o2)c(Cl)n1 [Example 99, 2-Chloro-6-methoxy-3-[5-(5-methyl-3-phenyl-isoxazol-4-yl)-[1,3,4]oxadiazol-2-yl]-pyridine] | 95.8 |
| Cc1onc(-c2ccccc2)c1-c1nnc(-c2ccc(S(C)(=O)=O)cc2)o1 [Example 30, 2-(4-Methanesulfonyl-phenyl)-5-(5-methyl-3-phenyl-isoxazol-4-yl)-[1,3,4]oxadiazole] | 226 |
| COc1cc(N2CCOCC2)ccc1-c1nnc(-c2c(-c3ccccc3)noc2Cl)o1 [Example 105, 4-{4-[5-(5-Chloro-3-phenyl-isoxazol-4-yl)-[1,3,4]oxadiazol-2-yl]-3-methoxy-phenyl}-morpholine] | 27.1 |
| Cc1onc(-c2ccccc2)c1-c1nnc(-c2ccsc2)o1 [Example 122, 2-(5-Methyl-3-phenyl-isoxazol-4-yl)-5-thiophen-3-yl-[1,3,4]oxadiazole] | 139 |
| COc1cc(N2CCOCC2)ccc1-c1nnc(-c2c(-c3ccc(C(F)(F)F)cc3)noc2C)o1 [Example 103, 4-(3-Methoxy-4-{5-[5-methyl-3-(4-trifluoromethyl-phenyl)-isoxazol-4-yl]-[1,3,4]oxadiazol-2-yl}-phenyl)-morpholine] | 47.6 |
| 2-(4,5-Difluoro-2-methoxy-phenyl)-5-(5-methyl-3-phenyl-isoxazol-4-yl)-[1,3,4]oxadiazole [Example 87] | 43.8 |
| Cc1onc(-c2ccccc2)c1-c1nnc(-c2cc(F)c(F)cc2F)o1 [Example 118, 2-(5-Methyl-3-phenyl-isoxazol-4-yl)-5-(2,4,5-trifluoro-phenyl)-[1,3,4]oxadiazole] | 149 |
| Cc1onc(-c2ccccc2)c1-c1nnc(-c2ccccc2OC(F)F)o1 [Example 42, 2-(2-Difluoromethoxy-phenyl)-5-(5-methyl-3-phenyl-isoxazol-4-yl)-[1,3,4]oxadiazole] | 141 |
| COc1cc(N2CCOCC2)ccc1-c1nnc(-c2c(-c3ccccc3)noc2N2CCOCC2)o1 [Example 107, 4-{4-[5-(2-Methoxy-4-morpholin-4-yl-phenyl)-[1,3,4]oxadiazol-2-yl]-3-phenyl-isoxazol-5-yl}-morpholine] | 31.1 |
| COc1cc(C(F)(F)F)ccc1-c1nnc(-c2c(-c3ccccc3)noc2C)o1 [Example 49, 2-(2-Methoxy-4-trifluoromethyl-phenyl)-5-(5-methyl-3-phenyl-isoxazol-4-yl)-[1,3,4]oxadiazole] | 39.7 |
| Cc1onc(-c2ccccc2)c1-c1nnc(-c2cccnc2Cl)o1 [Example 6, 2-Chloro-3-[5-(5-methyl-3-phenyl-isoxazol-4-yl)-[1,3,4]oxadiazol-2-yl]-pyridine] | 146 |
| N-Cyclopropylmethyl-4-[5-(5-methyl-3-phenyl-isoxazol-4-yl)-[1,3,4]oxadiazol-2-yl]-benzamide [Example 79] | 235 |
| COc1cc(N2CCOCC2)ccc1-c1nnc(-c2c(-c3ccccc3)noc2N(C)C)o1 [Example 106, {4-[5-(2-Methoxy-4-morpholin-4-yl-phenyl)-[1,3,4]oxadiazol-2-yl]-3-phenyl-isoxazol-5-yl}-dimethyl-amine] | 165 |
| Cc1onc(-c2ccccc2)c1-c1nnc(-c2cccs2)o1 [Example 121, 2-(5-Methyl-3-phenyl-isoxazol-4-yl)-5-thiophen-2-yl-[1,3,4]oxadiazole] | 115 |
| Cc1onc(-c2ccccc2)c1-c1nnc(-c2ccccc2)o1 [Example 1, 2-(5-Methyl-3-phenyl-isoxazol-4-yl)-5-phenyl-[1,3,4]oxadiazole] | 400 |
| Cc1onc(-c2ccccc2)c1-c1nnc(-c2cccc(F)c2)o1 [Example 45, 2-(3-Fluoro-phenyl)-5-(5-methyl-3-phenyl-isoxazol-4-yl)-[1,3,4]oxadiazole] | 100 |

These reach a lower Ki. Values come first.

| Ki [nM] | Molecule |
| --- | --- |
| 22.8 | COc1ncccc1-c1nnc(-c2c(-c3ccccc3)noc2C)o1 [Example 93, 2-Methoxy-3-[5-(5-methyl-3-phenyl-isoxazol-4-yl)-[1,3,4]oxadiazol-2-yl]-pyridine] |
| 21.2 | COc1cc(NCc2ccccn2)c(F)cc1-c1nnc(-c2c(-c3ccccc3)noc2C)o1 [Example 131, {2-Fluoro-5-methoxy-4-[5-(5-methyl-3-phenyl-isoxazol-4-yl)-[1,3,4]oxadiazol-2-yl]-phenyl}-pyridin-2-ylmethyl-amine] |
| 18.3 | COc1cc(NC(=O)c2ccsc2)ccc1-c1nnc(-c2c(-c3ccccc3)noc2C)o1 [Example 23, Thiophene-3-carboxylic acid-{3-methoxy-4-[5-(5-methyl-3-phenyl-isoxazol-4-yl)-[1,3,4]oxadiazol-2-yl]-phenyl}-amide] |
| 17.2 | Cc1onc(-c2ccccc2)c1-c1nnc(-c2ccc(N3CCOCC3)cn2)o1 [Example 142, 4-{6-[5-(5-Methyl-3-phenyl-isoxazol-4-yl)-[1,3,4]oxadiazol-2-yl]-pyridin-3-yl}-morpholine] |
| 16.4 | COc1ccccc1-c1nnc(-c2c(-c3ccccc3)noc2C)o1 [Example 4, 2-(2-Methoxy-phenyl)-5-(5-methyl-3-phenyl-isoxazol-4-yl)-[1,3,4]oxadiazole] |
| 15.3 | Cc1onc(-c2ccccc2)c1-c1nnc(-c2ccc(N3CCOCC3)nc2)o1 [Example 136, 4-{5-[5-(5-Methyl-3-phenyl-isoxazol-4-yl)-[1,3,4]oxadiazol-2-yl]-pyridin-2-yl}-morpholine] |
| 15.3 | COc1cc(N2CCOCC2)ccc1-c1nnc(-c2c(-c3ccccc3)noc2-c2ccccc2)o1 [Example 96, 4-{4-[5-(3,5-Diphenyl-isoxazol-4-yl)-[1,3,4]oxadiazol-2-yl]-3-methoxy-phenyl}-morpholine] |
| 14.5 | COc1cc(N2CCOCC2)ccc1-c1nnc(-c2c(-c3ccc(F)cc3)noc2C)o1 [Example 101, 4-(4-{5-[3-(4-Fluoro-phenyl)-5-methyl-isoxazol-4-yl]-[1,3,4]oxadiazol-2-yl}-3-methoxy-phenyl)-morpholine] |
| 14.4 | COc1cc(N2CCOCC2)ccc1-c1nnc(-c2c(-c3ccsc3)noc2C)o1 [Example 123, 4-{3-Methoxy-4-[5-(5-methyl-3-thiophen-3-yl-isoxazol-4-yl)-[1,3,4]oxadiazol-2-yl]-phenyl}-morpholine] |
| 10.2 | COc1cc(N2CCSCC2)ccc1-c1nnc(-c2c(-c3ccccc3)noc2C)o1 [Example 26, 4-{3-Methoxy-4-[5-(5-methyl-3-phenyl-isoxazol-4-yl)-[1,3,4]oxadiazol-2-yl]-phenyl}-thiomorpholine] |
| 8.1 | COc1ccccc1-c1nnc(-c2c(-c3ccccc3)noc2C2CC2)o1 [Example 69, 2-(5-Cyclopropyl-3-phenyl-isoxazol-4-yl)-5-(2-methoxy-phenyl)-[1,3,4]oxadiazole] |
| 6 | COc1cc(N2CCC(O)CC2)ccc1-c1nnc(-c2c(-c3ccccc3)noc2C)o1 [Example 29, 1-{3-Methoxy-4-[5-(5-methyl-3-phenyl-isoxazol-4-yl)-[1,3,4]oxadiazol-2-yl]-phenyl}-piperidin-4-ol] |
| 4.6 | COc1cc(NC(C)=O)ccc1-c1nnc(-c2c(-c3ccccc3)noc2C)o1 [Example 89, N-{3-Methoxy-4-[5-(5-methyl-3-phenyl-isoxazol-4-yl)-[1,3,4]oxadiazol-2-yl]-phenyl}-acetamide] |
| 4.2 | COc1cc(NCCN2CCCC2=O)c(F)cc1-c1nnc(-c2c(-c3ccccc3)noc2C)o1 [Example 128, 1-(2-{2-Fluoro-5-methoxy-4-[5-(5-methyl-3-phenyl-isoxazol-4-yl)-[1,3,4]oxadiazol-2-yl]-phenylamino}-ethyl)-pyrrolidin-2-one] |
| 3.2 | COc1cc(N2CCS(=O)(=O)CC2)ccc1-c1nnc(-c2c(-c3ccccc3)noc2C)o1 [Example 28, 4-{3-Methoxy-4-[5-(5-methyl-3-phenyl-isoxazol-4-yl)-[1,3,4]oxadiazol-2-yl]-phenyl}-thiomorpholine 1,1-dioxide] |
| 2.5 | COc1cc(NCCO)c(F)cc1-c1nnc(-c2c(-c3ccccc3)noc2C)o1 [Example 129, 2-{2-Fluoro-5-methoxy-4-[5-(5-methyl-3-phenyl-isoxazol-4-yl)-[1,3,4]oxadiazol-2-yl]-phenylamino}-ethanol] |
| 2.2 | COc1cc(N2CC[S+]([O-])CC2)ccc1-c1nnc(-c2c(-c3ccccc3)noc2C)o1 [Example 56, 4-{3-Methoxy-4-[5-(5-methyl-3-phenyl-isoxazol-4-yl)-[1,3,4]oxadiazol-2-yl]-phenyl}-thiomorpholine 1-oxide] |
| 1.7 | COc1cc(NCCS(C)(=O)=O)c(F)cc1-c1nnc(-c2c(-c3ccccc3)noc2C)o1 [Example 127, {2-Fluoro-5-methoxy-4-[5-(5-methyl-3-phenyl-isoxazol-4-yl)-[1,3,4]oxadiazol-2-yl]-phenyl}-(2-methanesulfonyl-ethyl)-amine] |
